# Assay results taken from patent US20250151727A1, “(S)-ABSCISIC ACID FOR REDUCING FRUIT DROP” (Valent BioSciences LLC, priority 2023, published 2025).
# Assays:
# Format in all cases: in vivo
# Details in all cases: for # Fruit per Tree / % Change in # Fruit per Tree: Excelero SL; for % Change in # Fruit per Tree: vs untreated control
# [1] = test system: 'Nadorcott' mandarin trees; assay: Fruit drop, 'Nadorcott' mandarin, Piketberg, all plots with ProGibb (Example 4)
# Method: Excelero™ SL was applied to mature ‘Nadorcott’ mandarin trees in a commercial orchard near Piketberg (33°04′46.3″S 18°50′04.7″E) in the Western Cape Province of South Africa. The experiment consisted of 5 trees per plot. S-ABA was applied at 50 and 100 ppm in the form of Excelero™ SL and compared to an untreated control at 2.4 liters per tree. All plots received application of ProGibb® at 80% and 100% petal fall. All treatments were applied with Villa 51® at a rate of 6 milliliters per 100 liters of water. Treatments were applied 42 and 56 days after 100% petal drop (“DAP”) on 23 November and […], respectively. See Results in Table 4, below.
# [2] = test system: '2PH seedless' lemon trees; assay: Fruit drop, '2PH seedless' lemon, Mpumalanga (Example 8)
# Text: Excelero™ SL was applied to mature ‘2PH seedless’ lemon trees in a commercial orchard near Mpumalanga, South Africa. The experiment consisted of a completely randomized design. S-ABA was applied at 20, 40 and 80 ppm in the form of Excelero™ SL and compared to an untreated control. All treatments were applied with Villa 51® at a rate of 6 milliliters per 100 liters of water. Treatments were applied 14, 21 and 28 days after 100% petal drop (“DAP”). See Results in Table 8, below.
# [3] = test system: 'Midnight Valencia' sweet orange trees; assay: Fruit drop, 'Midnight Valencia' sweet orange, Mpumalanga (Example 7)
# Text: Excelero™ SL was applied to mature ‘Midnight Valencia’ sweet orange trees in a commercial orchard near Mpumalanga, South Africa. The experiment consisted of a completely randomized design. S-ABA was applied at 20, 40 and 80 ppm in the form of Excelero™ SL and compared to an untreated control. All treatments were applied with Villa 51® at a rate of 6 milliliters per 100 liters of water. Treatments were applied 14, 21 and 28 days after 100% petal drop (“DAP”). See Results in Table 7, below.
# [4] = 20, 40 and 80 ppm at each of 14, 21 and 28 days after 100% petal drop
substance,measurement,setting,value
(S)-abscisic acid [S-ABA],effect on fruit drop as compared to untreated control,[1]; 50 and 100 ppm at both 42 and 56 days after 100% petal drop,reduced fruit drop
same,# Fruit per Tree,[1]; 50 ppm @ 42 DAP,412
same,% Change in # Fruit per Tree,[1]; 50 ppm @ 42 DAP,35%
same,# Fruit per Tree,[1]; 50 ppm @ 56 DAP,316
same,% Change in # Fruit per Tree,[1]; 50 ppm @ 56 DAP,3%
same,# Fruit per Tree,[1]; 100 ppm @ 42 DAP,387
same,% Change in # Fruit per Tree,[1]; 100 ppm @ 42 DAP,26%
same,# Fruit per Tree,[1]; 100 ppm @ 56 DAP,322
same,% Change in # Fruit per Tree,[1]; 100 ppm @ 56 DAP,5%
same,effect on fruit drop as compared to untreated control,[2]; [4],reduced fruit drop
same,# Fruit per Tree,[2]; 20 ppm @ 14 DAP,107
same,% Change in # Fruit per Tree,[2]; 20 ppm @ 14 DAP,23%
same,# Fruit per Tree,[2]; 20 ppm @ 21 DAP,105
same,% Change in # Fruit per Tree,[2]; 20 ppm @ 21 DAP,21%
same,# Fruit per Tree,[2]; 20 ppm @ 28 DAP,112
same,% Change in # Fruit per Tree,[2]; 20 ppm @ 28 DAP,29%
same,# Fruit per Tree,[2]; 40 ppm @ 14 DAP,114
same,% Change in # Fruit per Tree,[2]; 40 ppm @ 14 DAP,31%
same,# Fruit per Tree,[2]; 40 ppm @ 21 DAP,121
same,% Change in # Fruit per Tree,[2]; 40 ppm @ 21 DAP,39%
same,# Fruit per Tree,[2]; 40 ppm @ 28 DAP,119
same,% Change in # Fruit per Tree,[2]; 40 ppm @ 28 DAP,37%
same,# Fruit per Tree,[2]; 80 ppm @ 14 DAP,109
same,% Change in # Fruit per Tree,[2]; 80 ppm @ 14 DAP,25%
same,# Fruit per Tree,[2]; 80 ppm @ 21 DAP,117
same,% Change in # Fruit per Tree,[2]; 80 ppm @ 21 DAP,34%
same,# Fruit per Tree,[2]; 80 ppm @ 28 DAP,125
same,% Change in # Fruit per Tree,[2]; 80 ppm @ 28 DAP,44%
same,effect on fruit drop as compared to untreated control,[3]; [4],reduced fruit drop
same,# Fruit per Tree,[3]; 20 ppm @ 14 DAP,239
same,% Change in # Fruit per Tree,[3]; 20 ppm @ 14 DAP,19%
same,# Fruit per Tree,[3]; 20 ppm @ 21 DAP,263
same,% Change in # Fruit per Tree,[3]; 20 ppm @ 21 DAP,31%
same,# Fruit per Tree,[3]; 20 ppm @ 28 DAP,245
same,% Change in # Fruit per Tree,[3]; 20 ppm @ 28 DAP,22%
same,# Fruit per Tree,[3]; 40 ppm @ 14 DAP,221
same,% Change in # Fruit per Tree,[3]; 40 ppm @ 14 DAP,10%
same,# Fruit per Tree,[3]; 40 ppm @ 21 DAP,246
same,% Change in # Fruit per Tree,[3]; 40 ppm @ 21 DAP,22%
same,# Fruit per Tree,[3]; 40 ppm @ 28 DAP,230
same,% Change in # Fruit per Tree,[3]; 40 ppm @ 28 DAP,14%
same,# Fruit per Tree,[3]; 80 ppm @ 14 DAP,255
same,% Change in # Fruit per Tree,[3]; 80 ppm @ 14 DAP,27%
same,# Fruit per Tree,[3]; 80 ppm @ 21 DAP,256
same,% Change in # Fruit per Tree,[3]; 80 ppm @ 21 DAP,27%
same,# Fruit per Tree,[3]; 80 ppm @ 28 DAP,285
same,% Change in # Fruit per Tree,[3]; 80 ppm @ 28 DAP,42%
